Columns and labels:
recombinant human MMP-13 = target: T1, recombinant human MMP-13 (Homo sapiens, UniProt P45452); test: In vitro metalloprotease inhibition, fluorogenic peptide assay (MMP-13); format: biochemical; conditions: recombinant human MMP-13, APMA activated; fluorogenic MCA peptide substrate 4 uM; pH 7.5, room temperature
T1 construct: made in house
Outline: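 APMA-activated recombinant human MMP-13 (baculovirus-expressed) and MMP-1 (HT-1080-expressed) preincubated with inhibitor 10 min at room temperature in Tris/NaCl/CaCl2 buffer, pH 7.5, 1% DMSO final. MCA-PLGL-Dpa-AR-NH2 substrate at 4 uM final; cleavage read as fluorescence (ex 328/em 415 nm). IC50 from fluorescence reduction versus inhibitor concentration.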

recombinant human MMP-1 = target: T2, recombinant human MMP-1 (Homo sapiens, UniProt P03956); test: In vitro metalloprotease inhibition, fluorogenic peptide assay (MMP-1); format: biochemical; conditions: recombinant human MMP-1, APMA activated; fluorogenic MCA peptide substrate 4 uM; pH 7.5, room temperature
T2 construct: made in house; host or cells: transfected HT-1080 cells (provided by Dr. Howard Welgus, Washington University)
T2 sequence (P03956 100-469): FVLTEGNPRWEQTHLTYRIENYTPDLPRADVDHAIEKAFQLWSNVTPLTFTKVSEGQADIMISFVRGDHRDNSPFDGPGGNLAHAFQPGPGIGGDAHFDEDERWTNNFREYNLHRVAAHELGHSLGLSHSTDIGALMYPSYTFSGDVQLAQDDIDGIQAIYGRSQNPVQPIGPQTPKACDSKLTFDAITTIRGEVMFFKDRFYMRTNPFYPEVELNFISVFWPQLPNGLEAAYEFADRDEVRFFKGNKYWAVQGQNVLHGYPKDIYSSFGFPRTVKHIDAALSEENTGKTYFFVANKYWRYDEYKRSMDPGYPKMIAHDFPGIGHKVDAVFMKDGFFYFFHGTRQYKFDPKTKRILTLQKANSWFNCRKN
Protocol: Certain of the compounds prepared in the manner described in Examples 1 to 223 were tested for activity by an in vitro assay. Following the procedures of Knight et al., FEBS Lett. 296(3):263 (1992). Briefly, 4-aminophenylmercuric acetate (APMA) or trypsin activated MMPs were incubated with various concentrations of the inhibitor compound at room temperature for 5 minutes (0.02% 2-mercapto-ethanol added to buffer for thiol compounds with 5 minutes or overnight incubation). More specifically, recombinant human MMP-13 and MMP-1 enzymes were prepared in laboratories of the inventors' employer. MMP-13 was expressed in baculovirus as a proenzyme, and purified first over a heparin agarose column and then over a chelating zinc chloride column. The proenzyme was activated by APMA for use in the assay. MMP-1 expressed in transfected HT-1080 was provided by Dr. Howard Welgus of Washington University, St. Louis, Mo. The enzyme was also activated using APMA and was then purified over a hydroxamic acid column.
The enzyme substrate is a methoxycoumarin-containing polypeptide having the following sequence:
MCA-ProLeuGlyLeuDpaAlaArgNH^2, wherein MCA is methoxycoumarin and Dpa is 3-(2,4-dinitrophenyl)-L-2,3-diaminopropionyl alanine. This substrate is commercially available from Baychem as product M-1895.
The buffer used for assays contained 100 mM Tris-HCl, 100 mM NaCl, 10 mM CaCl2 and 0.05 percent polyethyleneglycol(23) lauryl ether at a pH value of 7.5. Assays were carried out at room temperature, and dimethyl sulfoxide (DMSO) at a final concentration of 1 percent was used to dissolve inhibitor compound.
The assayed inhibitor compound in DMSO/buffer solution was compared to an equal amount of DMSO/buffer with no inhibitor as control using microfluor™ white plates (Dynatech). The inhibitor or control solution was maintained in the plate for 10 minutes and the substrate was added to provide a final concentration of 4 uM.
In the absence of inhibitor activity, a fluorogenic peptide is cleaved at the gly-leu peptide bond, separating the highly fluorogenic peptide from a 2.4-dinitrophenyl quencher, resulting in an increase of fluorescence intensity (excitation at 328 nm/emmision at 415 nm). Inhibition was measured as a reduction in fluorescent intensity as a function of inhibitor concentration, using a Perkin Elmer L550 plate reader. The IC50 values were calculated from those values. The results are set forth in the Inhibition Table below, reported in terms of IC50 to three significant figures.

Molecule | IC50 (recombinant human MMP-13) [nM] | IC50 (recombinant human MMP-1) [nM]
C[C@H](CS)N(C)S(=O)(=O)c1ccc(-c2cccc(C(F)(F)F)c2)cc1 [Example 125] | 770 | > 10000
CCCCCc1ccc(S(=O)(=O)N(CCN2CCOCC2)[C@@H](CS)C(N)=O)cc1 [Example 128] | 1.1 | 5000
C[C@H](CSC(=O)c1cccs1)N(CCN1CCOCC1)S(=O)(=O)c1ccc(Sc2ccccc2)cc1 [Example 132] | 47 | > 10000
C[C@H](CSC(=O)C(C)(C)C)N(CCN1CCOCC1)S(=O)(=O)c1ccc(Sc2ccccc2)cc1 [Example 133] | 4200 | > 10000
C[C@H](CS)NS(=O)(=O)c1ccc(S(C)(=O)=O)cc1 [Example 147] | > 10000 | < 10000
CCCCOc1ccc(S(=O)(=O)N[C@@H](CS)C(=O)N(C)C)cc1 [Example 178] | 300 | > 10000
CCCCOc1ccc(S(=O)(=O)N[C@@H](CS)C(=O)NCC(=O)O)cc1 [Example 179] | 23.5 | 2000
CCCCOc1ccc(S(=O)(=O)N[C@@H](CS)C(=O)O)cc1 [Example 181] | 3000 | > 10000
CCC(C)(C)c1ccc(S(=O)(=O)N[C@H](C)CS)cc1 [Example 193] | > 10000 | > 10000
NC(=O)[C@H](CSSC[C@@H](C(N)=O)N(CCN1CCOCC1)S(=O)(=O)c1ccc(Oc2ccccc2)cc1)N(CCN1CCOCC1)S(=O)(=O)c1ccc(Oc2ccccc2)cc1 [Example 213] | 1.5 | > 10000
CC(=O)SC[C@@H](C(N)=O)N(CCN1CCOCC1)S(=O)(=O)c1ccc(Sc2ccccc2)cc1 [Example 216] | 200 | > 10000
N-(1R-Mercaptomethyl)propyl-N-methyl-4-(n-butoxy)benzenesulfonamide [Example 23C] | 150 | 4000
N-(2-Mercapto-1R-methylethyl)-N-[2-(4-morpholino)ethyl]-4-(thiophenyl)benzenesulfonamide Hydrochloride [Example 91D] | 0.7 | > 10000
N-(2-Mercapto-1S-methylethyl)-N-(phenylmethyl)-4-methoxybenzenesulfonamide [Example 13C] | 2000 | > 10000
N-(2-mercapto-1R-methylethyl)-4-n-pentyl)benzenesulfonamide [Example 71] | 40 | > 10000
N-(2-mercapto-1R-methylethyl)-4-n-propyl)benzenesulfonamide [Example 70] | 440 | > 10000

Results, then the molecule that gave them:

IC50 (recombinant human MMP-13) [nM] | IC50 (recombinant human MMP-1) [nM] | Molecule
3.5 | > 100 | CC(C)Oc1ccc(-c2ccc(S(=O)(=O)N(CCN3CCOCC3)[C@@H](CS)C(N)=O)cc2)cc1 [Example 126]
3300 | > 10000 | COc1ccc(S(=O)(=O)N(C)CCc2ccccc2S)cc1 [Example 130]
< 0.1 | 70 | COc1ccc(-c2ccc(S(=O)(=O)N(CCN3CCOCC3)[C@@H](CS)C(N)=O)cc2)cc1 [Example 131]
> 10000 | > 10000 | C[C@H](CS)NS(=O)(=O)c1ccc(Cc2ncc(C(F)(F)F)cc2Cl)s1 [Example 155]
7.3 | 1070 | C[C@H](CS)N(C)S(=O)(=O)c1ccc(-c2ccccn2)s1 [Example 156]
880 | > 10000 | CCCCOc1ccc(S(=O)(=O)N[C@@H](CS)C(=O)NC(C)C)cc1 [Example 166]
30 | > 10000 | CCCCOc1ccc(S(=O)(=O)N[C@@H](CS)C(=O)NC)cc1 [Example 171]
250 | > 10000 | CCCCOc1ccc(S(=O)(=O)N[C@@H](CS)C(=O)NCCN2CCOCC2)cc1 [Example 172]
0.7 | 400 | CCCCOc1ccc(S(=O)(=O)N(Cc2ccncc2)[C@@H](CS)C(N)=O)cc1 [Example 175]
2.5 | 2900 | CCCCOc1ccc(S(=O)(=O)N(CCN2CCOCC2)[C@@H](CS)C(=O)NC)cc1 [Example 176]
700 | > 10000 | CCCCOc1ccc(S(=O)(=O)N[C@@H](CS)C(=O)N[C@@H](Cc2ccccc2)C(=O)NC)cc1 [Example 180]
1100 | > 10000 | CCCCOc1ccc(S(=O)(=O)N[C@@H](CS)C(=O)N[C@@H](Cc2ccccc2)C(N)=O)cc1 [Example 186]
> 10000 | > 10000 | C[C@H](CS)NS(=O)(=O)c1ccc([N+](=O)[O-])cc1 [Example 192]
350 | > 10000 | CC(=O)Nc1ccc(S(=O)(=O)N[C@@H](CS)C(N)=O)cc1 [Example 199]
3.3 | 7000 | CCCCOc1ccc(S(=O)(=O)N[C@@H](CS)C(N)=O)cc1 [Example 201]
170 | > 10000 | CC(=O)Nc1ccc(S(=O)(=O)N(C)[C@@H](CS)C(N)=O)cc1 [Example 203]
190 | > 10000 | CCCCOc1ccc(S(=O)(=O)N(CCC(C)C)[C@@H](CS)C(N)=O)cc1 [Example 208]
50 | > 10000 | CCCCOc1ccc(S(=O)(=O)N[C@@H](CS)C(=O)NCc2ccccc2)cc1 [Example 209]
1.5 | > 10000 | C[C@H](CS)NS(=O)(=O)c1ccc(/N=N/c2ccc(N(C)C)cc2)cc1 [Example 217]
1.4 | 7000 | NC(=O)[C@H](CS)N(CCN1CCOCC1)S(=O)(=O)c1ccc(NC(=O)c2ccc(Cl)cc2)cc1 [Example 220, N-(4-(4′-chlorobenzoyl)amino)phenylsulfonyl-N-(4-(morpholinoethyl))-L-cysteine amide]
1.1 | 5300 | NC(=O)[C@H](CS)N(CCN1CCOCC1)S(=O)(=O)c1ccc(NC(=O)c2ccc(Br)cc2)cc1 [Example 222, N-(4-(4′-bromobenzoyl)amino)phenylsulfonyl-N-(4-(morpholinoethyl))-L-cysteine amide]
1720 | > 10000 | N-(2-mercapto-1R-methylethyl)-4-methylbenzenesulfonamide [Example 68]

From patent US6747027B1, “Thiol sulfonamide metalloprotease inhibitors” (Pharmacia Corporation, priority 1996, dated 2004)
